Experiment [1] has as its system Candida albicans. In words: Antifungal activity against Candida albicans by dilution method. The format is functional.
Experiment [2] relates to Mycobacterium tuberculosis. In words: Antimycobacterial activity against Mycobacterium tuberculosis H37Rv by MABA method. Format: functional. On the technique in general: Resazurin is reduced to fluorescent resorufin, in cell work by metabolically active cells.

Converted amounts (≈) assume the structure as drawn.

In the case of `O=C(/C=C/c1ccccc1Cl)c1ccc(N2C(=O)C(Br)=C(Br)C2=O)cc1`, the minimum inhibitory concentration (MIC) (commonly the lowest concentration found to suppress growth) in experiment [1] was found to be 1000 µg/mL (≈ 2020 µM). In addition, the MIC90 (in general, the lowest concentration that inhibits either 90% of growth or 90% of the strains tested, depending on the study) in experiment [2] was determined as 250 µg/mL (≈ 504 µM).

In turn, NYSTATIN had an MIC in experiment [1] of 100 µg/mL.

In experiment [1], `COc1ccc(/C=C/C(=O)c2ccc(N3C(=O)C(Br)=C(Br)C3=O)cc2)cc1` came in with an MIC of 1000 µg/mL (≈ 2040 µM). The MIC90 in experiment [2] was 500 µg/mL (≈ 1020 µM).

As for `O=C(/C=C/c1ccc(Cl)cc1Cl)c1ccc(N2C(=O)C(Br)=C(Br)C2=O)cc1`, 500 µg/mL (≈ 943 µM) was the least that counted as inhibitory in experiment [1] (MIC). In addition, the MIC90 in experiment [2] is 500 µg/mL (≈ 943 µM).

For the compound `O=C(/C=C/c1ccccc1O)c1ccc(N2C(=O)C(Br)=C(Br)C2=O)cc1`, the minimal inhibitory concentration (MIC) in experiment [1] worked out at 100 µg/mL (≈ 210 µM). This compound had an MIC90 in experiment [2] of 50 µg/mL (≈ 105 µM).

Turning to `Cc1ccc(/C=C/C(=O)c2ccc(N3C(=O)C(Br)=C(Br)C3=O)cc2)cc1`, in experiment [1], the lowest concentration to inhibit growth (MIC) was 1000 µg/mL (≈ 2100 µM). The compound further yielded an MIC90 in experiment [2] of 500 µg/mL (≈ 1050 µM).

`O=C(/C=C/c1ccc(O)cc1)c1ccc(N2C(=O)C(Br)=C(Br)C2=O)cc1` came in with an MIC in experiment [1] of 150 µg/mL (≈ 314 µM). The compound also registered an MIC90 in experiment [2] of 60 µg/mL (≈ 126 µM).

In experiment [1], `O=C(/C=C/c1cccc([N+](=O)[O-])c1)c1ccc(N2C(=O)C(Br)=C(Br)C2=O)cc1` showed an MIC of 250 µg/mL (≈ 494 µM). Besides, in experiment [2], the MIC90 came out at 200 µg/mL (≈ 395 µM).

For `NNC(=O)c1ccncc1` [ISONIAZID], the MIC90 in experiment [2] is 0.2 µg/mL (≈ 1.46 µM).

`O=C(/C=C/c1ccccc1)c1ccc(N2C(=O)C(Br)=C(Br)C2=O)cc1` showed an MIC in experiment [1] of 250 µg/mL (≈ 542 µM). The compound further came in with an MIC90 in experiment [2] of 500 µg/mL (≈ 1080 µM).

In experiment [1], `O=C(/C=C/c1ccc(Cl)cc1)c1ccc(N2C(=O)C(Br)=C(Br)C2=O)cc1` gave an MIC of 250 µg/mL (≈ 504 µM). In addition, the MIC90 in experiment [2] came out at 100 µg/mL (≈ 202 µM).

In turn, `COC1=CC(=O)C[C@@H](C)[C@]12Oc1c(Cl)c(OC)cc(OC)c1C2=O` [GRISEOFULVIN] returned an MIC in experiment [1] of 500 µg/mL (≈ 1420 µM).

Turning to `COc1ccc(/C=C/C(=O)c2ccc(N3C(=O)C(Br)=C(Br)C3=O)cc2)cc1OC`, 500 µg/mL (≈ 959 µM) was the least that counted as inhibitory in experiment [1] (MIC). In addition, the MIC90 in experiment [2] stood at 500 µg/mL (≈ 959 µM).

Compound `COc1ccc(/C=C/C(=O)c2ccc(N3C(=O)C(Br)=C(Br)C3=O)cc2)cc1[N+](=O)[O-]` came in with an MIC in experiment [1] of 1000 µg/mL (≈ 1870 µM). For the same compound, the MIC90 in experiment [2] stood at 1000 µg/mL (≈ 1870 µM).

(Values after ChEMBL document CHEMBL3046117, “Synthesis of 1-(4-((E)-3-arylacryloyl) phenyl)-3,4-dibromo-1H-pyrrole-2,5-diones and screening for anti-Candida and antituberculosis activity” (2012).)
